Assay results reported in patent US20250304623A1, “PEPTIDES FOR INTRACELLULAR DELIVERY” (UNIVERSIDADE DE SANTIAGO DE COMPOSTELA, priority 2022, published 2025).
*: point of attachment. NHNH2 = NN*

Key:
Type in all cases: cell-based
[1] = test system: ARPE19 cells expressing EGFP; assay: Cas9-RNP delivery against EGFP (gene editing, plate reader), ARPE19
Summary of the method: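 EGFP-expressing cells, generated by stable transfection with EGFP pDNA and G-418 selection, were plated in 96-well plates at 50,000 cell/mL (100 μL/w) in DMEM+10% FBS+1% Gln-Abt. Cas9-RNP targeting EGFP was complexed with amphiphile for 30 min, applied for 4 h at 50 nM RNP, and EGFP fluorescence was read on a plate reader after 72 h.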

[2] = test system: HCT116 cells expressing EGFP; assay: Cas9-RNP delivery against EGFP (gene editing, plate reader), HCT116
Summary of the method: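 Gene editing was estimated as the percent drop in GFP fluorescence relative to untreated cells, after subtracting background from untreated controls; triplicate means were reported. EGFP-expressing HCT116 cells received RNP/amphiphile mixtures in DMEM for 4 h, then fresh DMEM with 10% FBS. Total fluorescence was measured 72 h later on a plate reader.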

[3] = test system: Hela cells expressing EGFP; assay: Cas9-RNP delivery against EGFP (gene editing, plate reader), HeLa
Summary of the method: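 HeLa cells stably expressing EGFP were plated in 96-well plates at 50,000 cell/mL (100 μL/w) in DMEM+10% FBS+1% Gln-Abt one day ahead. Cas9-RNP targeting EGFP was premixed with amphiphile for 30 min at room temperature, applied for 4 h at 50 nM RNP, then medium was replaced; EGFP fluorescence was read on a plate reader after 72 h, in triplicate.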

Substance: Ac-RRLK*RLLRRLK*RLK*RRL-NH2 (Ac-RRLK(NHNH2)RLLRRLK(NHNH2)RLK(NHNH2)RRL-NH2; not fully specified; printed as Ac-RRLK*RLLRRLK*RLK*RRL-NH2; also: K*4,K*11,K*14: native or modified lysine (ε-amide to a linker)) [Peptide 17.3]
- percentage of gene editing, GFP fluorescence intensity decrease (% of reduction) ([1]; Myristoleyl, 10 μM): 44%
- percentage of gene editing, GFP fluorescence intensity decrease (% of reduction) ([1]; Oleyl, 10 μM): 45%
- percentage of gene editing, GFP fluorescence intensity decrease (% of reduction) ([1]; Oleyl, 15 μM): −9%
- percentage of gene editing, GFP fluorescence intensity decrease (% of reduction) ([1]; Palmitoleyl, 5 μM): 12%
- percentage of gene editing, GFP fluorescence intensity decrease (% of reduction) ([1]; Palmitoleyl, 10 μM): 60%
- percentage of gene editing, GFP fluorescence intensity decrease (% of reduction) ([1]; Palmitoleyl, 15 μM): 31%
- percentage of gene editing, GFP fluorescence intensity decrease (% of reduction) ([1]; Petroselinyl, 10 μM): 26%
- percentage of gene editing, GFP fluorescence intensity decrease (% of reduction) ([1]; Petroselinyl, 15 μM): 27%
- percentage of gene editing, GFP fluorescence intensity decrease (% of reduction) ([2]; Dodecanal, 5 μM): −2%
- percentage of gene editing, GFP fluorescence intensity decrease (% of reduction) ([2]; Dodecanal, 15 μM): 22%
- percentage of gene editing, GFP fluorescence intensity decrease (% of reduction) ([2]; Myristoleyl, 15 μM): 26%
- percentage of gene editing, GFP fluorescence intensity decrease (% of reduction) ([2]; Petroselinyl, 5 μM): −4%
- percentage of gene editing, GFP fluorescence intensity decrease (% of reduction) ([3]; Dodecanal, 5 μM, Hela cells): 81%
- percentage of gene editing, GFP fluorescence intensity decrease (% of reduction) ([3]; Dodecanal, 10 μM, HeLa cells): 87%
- percentage of gene editing, GFP fluorescence intensity decrease (% of reduction) ([3]; Dodecanal, 15 μM, Hela cells): 78%
- percentage of gene editing, GFP fluorescence intensity decrease (% of reduction) ([3]; Myristoleyl, 5 μM, HeLa cells): 57%
- percentage of gene editing, GFP fluorescence intensity decrease (% of reduction) ([3]; Oleyl, 10 μM, HeLa cells): 90%
- percentage of gene editing, GFP fluorescence intensity decrease (% of reduction) ([3]; Oleyl, 15 μM, Hela cells): 82%
- percentage of gene editing, GFP fluorescence intensity decrease (% of reduction) ([3]; Palmitoleyl, 5 μM, HeLa cells): 35%
- percentage of gene editing, GFP fluorescence intensity decrease (% of reduction) ([3]; Palmitoleyl, 10 μM, HeLa cells): 90%
- percentage of gene editing, GFP fluorescence intensity decrease (% of reduction) ([3]; Palmitoleyl, 15 μM, Hela cells): 88%
- percentage of gene editing, GFP fluorescence intensity decrease (% of reduction) ([3]; Petroselinyl, 5 μM, HeLa cells): 48%
- percentage of gene editing, GFP fluorescence intensity decrease (% of reduction) ([3]; Petroselinyl, 15 μM, Hela cells): 87%
